What is called IC50 is the concentration that inhibits the measured activity by half.

Assay [1] has as its target Glutamate [NMDA] receptor. Kind of assay: Compound was tested for inhibition of [3H]DCKA binding to N-methyl-D-aspartate glutamate receptor. The assay is classed as protein-complex assay. Details: unit not given here.
For assay [2], the target named is Glutamate [NMDA] receptor. Kind of assay: Inhibition of [3H]DCKA binding to N-methyl-D-aspartate glutamate receptor. The assay is classed as protein-complex assay.

As for `Cc1cc([N+](=O)[O-])c2nc(O)c(O)nc2c1`, the Log 1/IC50 in assay [1] was -0.97. Moreover, in assay [2], the IC50 is 9.3 µM.
The like results for `Oc1nc2ncc(Cl)cc2c(O)c1-c1cccc(Oc2ccccc2)c1` were, in that order, -1.28 and 19 µM.
The like results for `COc1cc2nc(O)c(O)nc2c(OC(C)=O)c1OC` were, in that order, -1.72 and 53 µM.
The matching figures for `Oc1nc2cc(Cl)cc(Cl)c2nc1O`: 0.55 and 0.28 µM.
As for `Oc1nc2cnccc2c(O)c1-c1cccc(Oc2ccccc2)c1`, the Log 1/IC50 in assay [1] was -0.73. In assay [2], the IC50 was 5.4 µM.
The like results for `Cc1cc(C)c2c(O)c(N=O)c(O)nc2c1` were, in that order, 1.43 and 0.037 µM.
